According to patent publication US20220409593A1 (ARKUDA THERAPEUTICS, priority 2019, published 2022):

test system: secreted mouse PGRN; test: progranulin induction cellular assay (PGRN assay, ELISA-based readout); settings: Mus musculus, progranulin secreted into cell culture medium, cells named in method: mouse primary microglia, primary cortical neurons, BV-2
Experimental: Cellular Assays: To measure the efficacy of compounds, a progranulin induction cellular assay in mouse primary microglia (pMG), primary cortical neurons, and BV-2 cell lines is used. BV-2 cells are split the day before plating into a 96well plate format at approximately 80%. Cells should be plated the day before and allowed for 1 hour attachment period and for 16 hour incubation. Levels of progranulin secreted into the cell culture medium or retained in the cell lysate can be quantified using an ELISA-based readout and measurement of secreted mouse PGRN in the medium was assessed by the methodology published by Ghidoni et al. 2012. Standard ELISA kits to measure PGRN are available from vendors such as Adipogen, R&D, and Biovendor.
Table D below presents the results of a PGRN assay as described above.

SMILES | EC50 [nM]
CN1CCC[C@]2(CN=C(N3CCc4ccccc4[C@@H]3c3cc(F)c(F)c(F)c3)O2)C1 (single isomer, unassigned) [Compound 3002] | 5080
Fc1ccc([C@H]2c3ccccc3CCN2C2=NC[C@H]([C@@H]3CCNC3)O2)cc1 (single isomer, unassigned) [Compound 3063] | 208
Fc1ccc([C@H]2c3ccccc3CCN2C2=N[C@H]([C@H]3CCNC3)CO2)cc1 (single isomer, unassigned) [Compound 3072] | 330
Fc1ccc([C@H]2c3ccccc3CCN2C2=NC[C@@]3(CCN(CCC(F)(F)F)C3)O2)cc1 [Compound 3174, (S)-2-((S)-1-(4-fluorophenyl)-3,4-dihydroisoquinolin-2(1H)-yl)-7-(3,3,3-trifluoropropyl)-1-oxa-3,7-diazaspiro[4.4]non-2-ene] | 1380
Fc1cc(F)cc([C@H]2c3ccccc3CCN2C2=NC[C@@]3(CN4CCC3CC4)O2)c1 (racemic) [Compound 3036] | 3750
Fc1ccc([C@H]2c3ccccc3CCN2C2=NC[C@H]([C@H]3CCCNC3)O2)cc1 (single isomer, unassigned) [Compound 3076] | > 10000
Fc1ccc([C@H]2c3ccccc3CCN2C2=NC[C@H](C3(F)CNC3)O2)cc1 (single isomer, unassigned) [Compound 3155] | 192
Fc1ccc([C@H]2c3ccccc3CCN2C2=N[C@H](C3(F)CNC3)CO2)cc1 (single isomer, unassigned) [Compound 3157] | 77.7
CN1CCCC2(COC(N3CCc4ccccc4[C@@H]3c3ccc(F)cc3)=N2)C1 (stereo partly shown) [Compound 3055] | 1770
Fc1cccc([C@@H]2c3ccccc3CCN2C2=NC[C@@]3(CN4CCC3CC4)O2)c1 (stereo in doubt) [Compound 3022] | 1490
Fc1ccc([C@H]2c3ccccc3CCN2C2=N[C@@H](C3CCNCC3)CO2)cc1 (single isomer, unassigned) [Compound 3133] | 612
N[C@H]1CC[C@@]2(COC(N3CCc4ccccc4[C@@H]3c3ccc(F)cc3)=N2)C1 [Compound 3084, (5S,7S)-2-((S)-1-(4-fluorophenyl)-3,4-dihydroisoquinolin-2(1H)-yl)-3-oxa-1-azaspiro[4.4]non-1-en-7-amine] | 204
N[C@H]1CCC[C@]12CN=C(N1CCc3ccccc3[C@@H]1c1ccc(F)cc1)O2 (single isomer, unassigned) [Compound 3086] | 757
CN1CCC[C@H]([C@H]2CN=C(N3CCc4ccccc4[C@@H]3c3ccc(F)cc3)O2)C1 (single isomer, unassigned) [Compound 3153] | 940
c1ccc([C@H]2c3ccccc3CCN2C2=NC[C@]3(CN4CCC3CC4)O2)cc1 (single isomer, unassigned) [Compound 3040] | 1130
Fc1ccc([C@H]2c3ccccc3CCN2C2=NC[C@@H](C3CCNCC3)O2)cc1 [Compound 3067] | 309
CN1CCC[C@@]2(CN=C(N3CCc4ccccc4[C@H]3c3cc(F)cc(F)c3)O2)C1 (single isomer, unassigned) [Compound 3013] | 1590
Fc1cccc([C@@H]2c3ccccc3CCN2C2=NC[C@]3(CN4CCC3CC4)O2)c1 (stereo in doubt) [Compound 3023] | 2170
Fc1ccc([C@H]2c3ccccc3CCN2C2=NC[C@]3(CNC[C@@H]3F)O2)cc1 (single isomer, unassigned) [Compound 3169] | 200
Fc1ccc([C@H]2c3ccccc3CCN2C2=NC[C@]3(CN4CCC3CC4)O2)c(F)c1 (single isomer, unassigned) [Compound 3017] | 260
CN(C)[C@@H]1CC[C@]2(CN=C(N3CCc4ccccc4[C@@H]3c3ccc(F)cc3)O2)C1 (single isomer, unassigned) [Compound 3164] | 137
Fc1ccc([C@H]2c3ccccc3CCN2C2=NC[C@]3(CN4CCC3CC4)O2)cc1F (stereo in doubt) [Compound 3025] | 4060
CN1CC[C@]2(CN=C(N3CCc4ccccc4[C@@H]3c3ccc(F)cc3)O2)C1 [Compound 3168, (R)-2-((S)-1-(4-fluorophenyl)-3,4-dihydroisoquinolin-2(1H)-yl)-7-methyl-1-oxa-3,7-diazaspiro[4.4]non-2-ene] | 68.7
CN1CCC[C@H]([C@@H]2CN=C(N3CCc4ccccc4[C@@H]3c3ccc(F)cc3)O2)C1 (single isomer, unassigned) [Compound 3152] | 406
N[C@@H]1CC[C@]2(CN=C(N3CCc4ccccc4[C@@H]3c3ccc(F)cc3)O2)C1 (single isomer, unassigned) [Compound 3079] | 236

SMILES | EC50 [nM]
Fc1ccc([C@H]2c3ccccc3CCN2C2=N[C@@H]([C@H]3CCNC3)CO2)cc1 (single isomer, unassigned) [Compound 3073] | 66.9
N[C@H]1CC[C@@]2(CN=C(N3CCc4ccccc4[C@@H]3c3ccc(F)cc3)O2)C1 (single isomer, unassigned) [Compound 3080] | 110
Fc1ccc([C@H]2c3ccccc3CCN2C2=NCC([C@H]3CCNC3)O2)cc1 (single isomer, unassigned) [Compound 3064] | 84.7
Fc1ccc([C@H]2c3ccccc3CCN2C2=NCC(C3CNC3)O2)cc1 (single isomer, unassigned) [Compound 3069] | 109
CN1CCC[C@@]2(CN=C(N3CCc4ccccc4[C@@H]3c3cc(F)c(F)c(F)c3)O2)C1 (single isomer, unassigned) [Compound 3003] | 4280
CN(C)[C@H]1C[C@]2(CN=C(N3CCc4ccccc4[C@@H]3c3ccc(F)cc3)O2)C1 (single isomer, unassigned) [Compound 3158] | 3580
CN1CCC[C@@]2(CN=C(N3CCc4ccccc4[C@@H]3c3cccc(F)c3)O2)C1 (single isomer, unassigned) [Compound 3007] | 370
c1ccc([C@H]2c3ccccc3CCN2C2=NC[C@@]3(CN4CCC3CC4)O2)cc1 (single isomer, unassigned) [Compound 3041] | 1720
CN1CCC[C@@]2(CN=C(N3CCc4ccccc4[C@H]3c3ccc(F)c(F)c3)O2)C1 (stereo in doubt) [Compound 3032] | 3430
Fc1ccc([C@H]2c3ccccc3CCN2C2=NO[C@@]3(CN4CCC3(F)CC4)O2)cc1 (single isomer, unassigned) [Compound 3034] | 450
CN1CCC[C@@H]([C@H]2CN=C(N3CCc4ccccc4[C@@H]3c3ccc(F)cc3)O2)C1 (single isomer, unassigned) [Compound 3151] | 3100
O=C1N[C@]2(CCCNC2)N=C1N1CCc2ccccc2[C@@H]1c1ccc(F)cc1 [Compound 3147] | 50.1
Fc1ccc([C@H]2c3ccccc3CCN2C2=NC[C@@H](C34CCN(CC3)CC4)O2)cc1 [Compound 3048, 2-((S)-1-(4-fluorophenyl)-3,4-dihydroisoquinolin-2(1H)-yl)-5-(quinuclidin-4-yl)-4,5-dihydrooxazole] | 110
Fc1ccc([C@H]2c3ccccc3CCN2C2=NC[C@@]3(CN4CCC3CC4)O2)cc1 (single isomer, unassigned) [Compound 3001] | 100
Fc1ccc([C@H]2c3ccccc3CCN2C2=NC[C@H]([C@@H]3CCCNC3)O2)cc1 (single isomer, unassigned) [Compound 3075] | 222
OCCCN1CC[C@@]2(CN=C(N3CCc4ccccc4[C@@H]3c3ccc(F)cc3)O2)C1 [Compound 3176, 3-((S)-2-((S)-1-(4-fluorophenyl)-3,4-dihydroisoquinolin-2(1H)-yl)-1-oxa-3,7-diazaspiro[4.4]non-2-en-7-yl)propan-1-ol] | 318
CN1CCC[C@@]2(CN=C(N3CCc4ccccc4[C@H]3c3cccc(F)c3F)O2)C1 (stereo in doubt) [Compound 3044] | 5000
CN1CCC2(CC1)CN=C(N1CCc3ccccc3[C@@H]1c1ccc(F)cc1)O2 [Compound 3059, (S)-2-(1-(4-fluorophenyl)-3,4-dihydroisoquinolin-2(1H)-yl)-8-methyl-1-oxa-3,8-diazaspiro[4.5]dec-2-ene] | 110
N[C@H]1C[C@@]2(COC(N3CCc4ccccc4[C@@H]3c3ccc(F)cc3)=N2)C1 [Compound 3162] | 639
Fc1ccc([C@H]2c3ccccc3CCN2C2=N[C@@H]([C@@H]3CCNC3)CO2)cc1 (single isomer, unassigned) [Compound 3074] | 338
CN1CCC[C@]2(CN=C(N3CCc4ccccc4[C@H]3c3ccc(F)c(F)c3)O2)C1 (stereo in doubt) [Compound 3031] | 4310
Fc1cccc([C@H]2c3ccccc3CCN2C2=NC[C@]3(CN4CCC3CC4)O2)c1F (single isomer, unassigned) [Compound 3019] | 300
Fc1ccc([C@H]2c3ccccc3CCN2C2=NC[C@]3(CCN(CC(F)(F)F)C3)O2)cc1 [Compound 3171, (R)-2-((S)-1-(4-fluorophenyl)-3,4-dihydroisoquinolin-2(1H)-yl)-7-(2,2,2-trifluoroethyl)-1-oxa-3,7-diazaspiro[4.4]non-2-ene] | 836
CN1CCC[C@@H]([C@@H]2CN=C(N3CCc4ccccc4[C@@H]3c3ccc(F)cc3)O2)C1 (single isomer, unassigned) [Compound 3150] | 266
c1ccc([C@H]2c3ccccc3CCN2C2=NC[C@@]3(CCNC3)O2)cc1 (single isomer, unassigned) [Compound 3165] | 118

same assay, conditions: progranulin secreted into cell culture medium, cells named in method: mouse primary microglia, primary cortical neurons, BV-2

SMILES | EC50 [nM]
CN1CCC[C@]2(CN=C(N3CCc4ccccc4[C@@H]3c3cccc(F)c3)O2)C1 (single isomer, unassigned) [Compound 3009] | 7020
CN1CCC[C@]2(CN=C(N3CCc4ccccc4[C@@H]3c3cc(F)c(F)c(F)c3)O2)C1 (single isomer, unassigned) [Compound 3004] | > 10000
